From PubChem BioAssay (NCI)
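Compound exposure: 48 hours, 5 concentrations, 96-well plates. Definition used: TGI = concentration required for complete inhibition of growth.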

What was measured:
Experiment in all cases: NCI-60 cell line screen, 48 h
UACC-62 melanoma = test system: UACC-62 melanoma
CCRF-CEM leukemia = test system: CCRF-CEM leukemia
A549 NSCLC = test system: A549 NSCLC
NCI/ADR-RES ovarian = test system: NCI/ADR-RES ovarian
MOLT-4 leukemia = test system: MOLT-4 leukemia
SK-OV-3 ovarian = test system: SK-OV-3 ovarian
SF-539 CNS = test system: SF-539 CNS
UO-31 renal = test system: UO-31 renal
COLO 205 colon = test system: COLO 205 colon
OVCAR-3 ovarian = test system: OVCAR-3 ovarian
OVCAR-5 ovarian = test system: OVCAR-5 ovarian
HT29 colon = test system: HT29 colon
MALME-3M melanoma = test system: MALME-3M melanoma
SF-295 CNS = test system: SF-295 CNS
SNB-75 CNS = test system: SNB-75 CNS
HOP-62 NSCLC = test system: HOP-62 NSCLC
MDA-MB-435 = test system: MDA-MB-435
UACC-257 melanoma = test system: UACC-257 melanoma
SR leukemia = test system: SR leukemia
SK-MEL-28 melanoma = test system: SK-MEL-28 melanoma
HCT-15 colon = test system: HCT-15 colon
NCI-H23 lung = test system: NCI-H23 lung
BT-549 breast = test system: BT-549 breast
M14 melanoma = test system: M14 melanoma
786-0 renal = test system: 786-0 renal
RPMI-8226 leukemia = test system: RPMI-8226 leukemia
CAKI-1 renal = test system: CAKI-1 renal
SNB-19 CNS = test system: SNB-19 CNS
HCC-2998 colon = test system: HCC-2998 colon
PC-3 prostate = test system: PC-3 prostate
MCF7 breast = test system: MCF7 breast
K-562 leukemia = test system: K-562 leukemia
DU-145 prostate = test system: DU-145 prostate
NCI-H522 lung = test system: NCI-H522 lung
ACHN renal = test system: ACHN renal
OVCAR-8 ovarian = test system: OVCAR-8 ovarian
MDA-MB-231 breast = test system: MDA-MB-231 breast
LOX IMVI melanoma = test system: LOX IMVI melanoma
TK-10 renal = test system: TK-10 renal
U251 CNS = test system: U251 CNS
NCI-H460 lung = test system: NCI-H460 lung
MDA-N = test system: MDA-N
HL-60(TB) leukemia = test system: HL-60(TB) leukemia
EKVX NSCLC = test system: EKVX NSCLC
SK-MEL-2 melanoma = test system: SK-MEL-2 melanoma
SN12C renal = test system: SN12C renal
OVCAR-4 ovarian = test system: OVCAR-4 ovarian
HCT-116 colon = test system: HCT-116 colon
IGROV1 ovarian = test system: IGROV1 ovarian
SF-268 CNS = test system: SF-268 CNS
NCI-H226 lung = test system: NCI-H226 lung
RXF 393 renal = test system: RXF 393 renal
T-47D breast = test system: T-47D breast
SK-MEL-5 melanoma = test system: SK-MEL-5 melanoma
SW-620 colon = test system: SW-620 colon
HOP-92 NSCLC = test system: HOP-92 NSCLC
KM12 colon = test system: KM12 colon
HS 578T breast = test system: HS 578T breast
A498 renal = test system: A498 renal

Nc1ccccc1N/C(=C\C(=O)C(Cl)(Cl)Cl)c1ccccc1 was tested, and the TGI (UACC-62 melanoma) was 45.3 µM, the TGI (CCRF-CEM leukemia) was over 100 µM and the TGI (A549 NSCLC) was over 100 µM. The TGI (NCI/ADR-RES ovarian) was over 100 µM, the TGI (MOLT-4 leukemia) was over 100 µM and the TGI (SK-OV-3 ovarian) was over 100 µM. It also gave a TGI (SF-539 CNS) of 36.1 µM, a TGI (UO-31 renal) of 39 µM and a TGI (COLO 205 colon) of 98.1 µM. For the same compound, the TGI (OVCAR-3 ovarian) was 65.2 µM, the TGI (OVCAR-5 ovarian) was 41.5 µM and the TGI (HT29 colon) was over 100 µM. The TGI (MALME-3M melanoma) was 37.7 µM, the TGI (SF-295 CNS) was over 100 µM and the TGI (SNB-75 CNS) was over 100 µM. It also gave a TGI (HOP-62 NSCLC) of 75.1 µM, a TGI (MDA-MB-435) of over 100 µM and a TGI (UACC-257 melanoma) of 79.1 µM. It also gave a TGI (SR leukemia) of over 100 µM, a TGI (SK-MEL-28 melanoma) of over 100 µM and a TGI (HCT-15 colon) of 80.4 µM. For the same compound, the TGI (NCI-H23 lung) was over 100 µM, the TGI (BT-549 breast) was 91.6 µM and the TGI (M14 melanoma) was 42.2 µM. For the same compound, the TGI (786-0 renal) was 54.3 µM, the TGI (RPMI-8226 leukemia) was 86 µM and the TGI (CAKI-1 renal) was over 100 µM. It also gave a TGI (SNB-19 CNS) of over 100 µM, a TGI (HCC-2998 colon) of 34.9 µM and a TGI (PC-3 prostate) of 68.8 µM. The TGI (MCF7 breast) was 83.4 µM, the TGI (K-562 leukemia) was over 100 µM and the TGI (DU-145 prostate) was over 100 µM. The TGI (NCI-H522 lung) was 35 µM, the TGI (ACHN renal) was 75.4 µM and the TGI (OVCAR-8 ovarian) was over 100 µM. It also gave a TGI (MDA-MB-231 breast) of 36.2 µM, a TGI (LOX IMVI melanoma) of 35.6 µM and a TGI (TK-10 renal) of over 100 µM. It also gave a TGI (U251 CNS) of 32 µM, a TGI (NCI-H460 lung) of 69.4 µM and a TGI (MDA-N) of 39 µM. For the same compound, the TGI (HL-60(TB) leukemia) was 55.3 µM, the TGI (EKVX NSCLC) was 63.1 µM and the TGI (SK-MEL-2 melanoma) was 28.6 µM. It also gave a TGI (SN12C renal) of 45.6 µM, a TGI (OVCAR-4 ovarian) of over 100 µM and a TGI (HCT-116 colon) of 38.2 µM. For the same compound, the TGI (IGROV1 ovarian) was 71 µM, the TGI (SF-268 CNS) was 70.4 µM and the TGI (NCI-H226 lung) was over 100 µM. It also gave a TGI (RXF 393 renal) of 53.4 µM, a TGI (T-47D breast) of 91.6 µM and a TGI (SK-MEL-5 melanoma) of 29 µM. The TGI (SW-620 colon) was over 100 µM, the TGI (HOP-92 NSCLC) was 41.8 µM and the TGI (KM12 colon) was over 100 µM. The TGI (HS 578T breast) was over 100 µM.

Cc1cc(O)c(C(C)C)cc1CN1CCCCC1 was tested, and the TGI (UACC-62 melanoma) was over 100 µM, the TGI (CCRF-CEM leukemia) was over 100 µM and the TGI (A549 NSCLC) was over 100 µM. It also gave a TGI (NCI/ADR-RES ovarian) of over 100 µM, a TGI (MOLT-4 leukemia) of over 100 µM and a TGI (SK-OV-3 ovarian) of over 100 µM. For the same compound, the TGI (A498 renal) was over 100 µM, the TGI (SF-539 CNS) was over 100 µM and the TGI (UO-31 renal) was over 100 µM. The TGI (COLO 205 colon) was over 100 µM, the TGI (OVCAR-3 ovarian) was over 100 µM and the TGI (OVCAR-5 ovarian) was over 100 µM. The TGI (HT29 colon) was over 100 µM, the TGI (MALME-3M melanoma) was over 100 µM and the TGI (SF-295 CNS) was over 100 µM. The TGI (SNB-75 CNS) was over 100 µM, the TGI (HOP-62 NSCLC) was over 100 µM and the TGI (MDA-MB-435) was over 100 µM. The TGI (UACC-257 melanoma) was over 100 µM, the TGI (SK-MEL-28 melanoma) was over 100 µM and the TGI (HCT-15 colon) was over 100 µM. It also gave a TGI (NCI-H23 lung) of over 100 µM, a TGI (BT-549 breast) of over 100 µM and a TGI (M14 melanoma) of over 100 µM. The TGI (786-0 renal) was over 100 µM, the TGI (RPMI-8226 leukemia) was over 100 µM and the TGI (CAKI-1 renal) was over 100 µM. It also gave a TGI (SNB-19 CNS) of over 100 µM, a TGI (HCC-2998 colon) of over 100 µM and a TGI (PC-3 prostate) of over 100 µM. It also gave a TGI (MCF7 breast) of over 100 µM, a TGI (K-562 leukemia) of over 100 µM and a TGI (DU-145 prostate) of over 100 µM. The TGI (NCI-H522 lung) was over 100 µM, the TGI (ACHN renal) was over 100 µM and the TGI (OVCAR-8 ovarian) was over 100 µM. For the same compound, the TGI (MDA-MB-231 breast) was over 100 µM, the TGI (LOX IMVI melanoma) was over 100 µM and the TGI (TK-10 renal) was over 100 µM. The TGI (U251 CNS) was over 100 µM, the TGI (NCI-H460 lung) was over 100 µM and the TGI (MDA-N) was over 100 µM. For the same compound, the TGI (HL-60(TB) leukemia) was over 100 µM, the TGI (EKVX NSCLC) was over 100 µM and the TGI (SN12C renal) was over 100 µM. It also gave a TGI (OVCAR-4 ovarian) of over 100 µM, a TGI (HCT-116 colon) of over 100 µM and a TGI (IGROV1 ovarian) of over 100 µM. The TGI (SF-268 CNS) was over 100 µM, the TGI (NCI-H226 lung) was over 100 µM and the TGI (RXF 393 renal) was over 100 µM. It also gave a TGI (T-47D breast) of over 100 µM, a TGI (SK-MEL-5 melanoma) of over 100 µM and a TGI (SW-620 colon) of over 100 µM. The TGI (HOP-92 NSCLC) was over 100 µM, the TGI (KM12 colon) was over 100 µM and the TGI (HS 578T breast) was over 100 µM.
